# Test results taken from US10245255B2, “Compositions and methods for the treatment of obesity and related disorders” (THE REGENTS OF THE UNIVERSITY OF MICHIGAN, priority 2011, dated 2019).
# “Also recorded” adds a separate entry of the source.
# Experiments:
# [1] = Ob/ob mice: glucose tolerance tests; format: in vivo; conditions: 100 mg/kg
# Description: (§1) Particular physiological tests were used during the development of the technology provided herein. For example, in some of the experiments described below, subjects were tested for tolerance of injected glucose and insulin according to the methods described in Chiang et al. (“The protein kinase IKKepsilon regulates energy balance in obese mice”, Cell (2009) 138: 961-975, incorporated herein by reference in its entirety for all purposes). In some of the experiments described below, subjects were tested for tolerance of oral glucose. In particular, mice were fasted for 6 hours before the studies. For ob/ob mice, 1.0-1.5 mg/g of glucose was gavaged into mice, and blood glucose was measured with a glucometer (e.g., OneTouch Ultra glucometer). Measurement of triglycerides, mRNA, and cytokines were performed according to the methods described in Chiang et al. (The protein kinase IKKepsilon regulates energy balance in obese mice. Cell (2009) 138: 961-975).
# (§2) For glucose tolerance tests, after a six-hour fast mice were orally gavaged with glucose at a dose of 1.5 g/kg (C57BL/6 mice) or 1.2 g/kg (ob/ob mice). […] Blood glucose was measured at basal, 15, 30, 45, 60, 90, 120 and 180 minutes from tail blood using the One Touch Ultra glucometer (Lifescan, Milpitas, Calif.).
# [2] = tested on: broad panel of kinases representing most families; test: Broad panel of kinases; format: biochemical
# [3] = Ob/ob mice: body weight, food intake, adipose mass; format: in vivo; conditions: 100 mg/kg
# [4] = tested on: 3T3-L1 adipocytes; test: 3T3-L1 adipocytes: phosphorylation (immunoblot) and lipolysis; format: cell-based
# Description: 3T3-L1 fibroblasts (American Type Culture Collection, Manassas, Va.) were cultured and differentiated using standard methods known in the art. […] 3T3-L1 adipocytes were serum starved with 0.5% fetal bovine serum (FBS) in Dulbecco's modified eagle medium (DMEM) prior to treatment. TNFα treatments (50 ng/mL unless otherwise noted) were performed during the 24 hour prior to harvest, after pretreatment with IKKβ inhibitor compound VIII (EMD Biosciences, Philadelphia, Pa.) for 1 hour where indicated. […] Cells were treated with or without 10 nM of insulin for 15 minutes. RAW264.7 cells were serum starved with 0.5% FBS DMEM media and pre-treated with or without Cay-10576 (Cayman Chemical, Ann Arbor, Mich.). The cells were then treated with LPS (0.5 μg/ml) or poly I:C (50 μg/ml) for 1 hour. Cells were harvested for total RNA and analyzed by real-time PCR Cell lysates were resolved on SDS-PAGE and analyzed by immunoblot using the indicated antibodies.
# [5] = Ob/ob mice: insulin tolerance test; format: in vivo; conditions: 100 mg/kg, 8-week period
# Description: as §1, §2
# [6] = Ob/ob mice: liver weight, triglycerides, histology; format: in vivo; conditions: 100 mg/kg for 14 weeks
# [7] = Diet-induced obese mice: liver weight, triglyceride, glycogen, histology; format: in vivo, C57BL/6 mice
# Description: (§3) Wild type male C57BL/6 mice were fed a high fat diet consisting of 45% of calories from fat (D12451 Research Diets Inc., New Brunswick, N.J.) starting at 8 weeks of age for 12-24 weeks, while normal diet C57BL/6 controls were maintained on normal chow diet consisting of 4.5% fat (5002 Lab Diet, Philadelphia, Pa.). Diets containing ω-3 fatty acids were fed as previously described 24. Rosiglitazone treatment was administered for three weeks by addition of the compound to the diet in mice that had been on HFD for 16 weeks. Each mouse consumed on average 3.5 mg/kg rosiglitazone per day. Amlexanox was administered by daily oral gavage. […] Animals were housed in a specific pathogen-free facility with a 12-hour light/12-hour dark cycle and given free access to food and water. All animal use was in compliance with the Institute of Laboratory Animal Research Guide for the Care and Use of Laboratory Animals and approved by the University Committee on Use and Care of Animals at the University of Michigan and UCSD.
# Liver lipids were isolated as previously described (Norris et. Al. 2003) and the triglyceride levels were measured by Triglyceride Reagent kit.
# Determination of glycogen in liver was performed as follows. Briefly, liver tissue was digested in a 30% potassium hydroxide solution, and then glycogen was precipitated using ethanol. After three washes to remove any traces of glucose, glycogen was digested by addition of amyloglucosidase. Released glucose was quantified using a colorimetric kit (Wako, Richmond, Va.).
# Tissues were fixed in formalin for 3 days. Histology was performed by the University of Michigan Cancer Center Research Histology Laboratory.
# [8] = Diet-induced obesity treatment group: blood chemistry; format: in vivo, C57BL/6 mice
# Description: as §3
# (§4) Blood glucose was measured by OneTouch Ultra Glucometer. Plasma from mice fasted for six hours was isolated from whole blood collected into heparinized tubes. Insulin concentrations were measured by insulin ELISA kit (Crystal Chem Inc., Downers Grove, Ill.). Leptin and adiponectin levels were measured by ELISA kits purchased from Cayman Chem Inc. (Ann Arbor, Mich.). Cytokine levels were quantified utilizing luminex technology in a multianalyte panel plate purchased from Millipore (Billerica, Mass.). Additionally, TNFα levels were measured using ELISA kits purchased from R&D Systems (Minneapolis, Minn.).
# [9] = Ob/ob mice: blood chemistry (glucose, adiponectin, serum cytokines); format: in vivo
# Description: as §3, §4
# [10] = cells chronically treated with TNFα
# [11] = diet induced obese mice, 25 mg/kg for 8 weeks
structure (smiles),measurement,setting,value
"CC(C)c1ccc2oc3nc(N)c(C(=O)O)cc3c(=O)c2c1 [amlexanox, 2-amino-7-isopropyl-5-oxo-5H-chromeno[2,3-b]pyridine-3-carboxylic acid]",tolerance to injected glucose,[1]; 5-week period,faster clearance of blood glucose
same,reduction in the area under the curve (oral glucose tolerance),"[1]; 8-week period, relative to control mice",30-40%
same,block of other kinases of a broad panel,[2],did not block
same,adipose tissue mass,[3],significant decrease
same,weight loss,[3]; after 4 weeks of treatment,7 to 8 g
same,basal lipolytic rate (glycerol release),[4],increased
same,poly I:C-stimulated phosphorylation of IRF3 (serine 396),"[4]; 1 hour pre-treatment, 20 μg/ml poly I:C",blocked; also recorded: inhibition
same,down regulation of PPARγ produced by TNFα,[4]; [10],did not affect
same,forskolin stimulated hormone sensitive lipase phosphorylation (serine 660),[4]; [10],restored; also recorded: partially restores
same,phosphorylation of TBK1 at serine 172 in TNFα-treated cells,[4]; [10],restored
same,phosphorylation of TBK1 on serine 172,"[4]; two-fold serial dilution, highest concentration 50 μM, with and without poly I:C",increased phosphorylation; also recorded: induction
same,insulin sensitivity (responsiveness to injected insulin),[5],dramatically improved
same,large lipid droplets in liver (H & E staining),[6],largely disseminated
same,reduction in liver weight,[6],greater than 20%
same,reduction of triglyceride contents in livers,[6],more than 50%
same,reductions in hepatic lipids after mice were taken off drug,"[7]; continued on high fat diet, stained tissue sections",reversed
same,large lipid droplets in liver (H & E staining),[7]; [11],largely disseminated
same,reduction in liver weight,[7]; [11],greater than 20%
same,hepatic glycogen levels,"[7]; diet induced obese mice, 25 mg/kg for 8 weeks, vs control HFD mice",lower
same,reduction of triglyceride content in liver,"[7]; diet induced obese mice, 25 mg/kg for 8 weeks, vs vehicle",more than 50%
same,fasting serum insulin,[8]; 25 mg/kg for 8 weeks after established diet-induced obesity,reversed elevations
same,decrease in fasting levels of leptin,"[8]; 25 mg/kg, HFD, treatment phase",80%
same,serum cholesterol,"[8]; 25 mg/kg, HFD, treatment phase",unchanged
same,serum free fatty acids,"[8]; 25 mg/kg, HFD, treatment phase",unchanged
same,serum triglycerides,"[8]; 25 mg/kg, HFD, treatment phase",unchanged
same,circulating (serum) level of MCP-1,[9]; 100 mg/kg,not significantly affected
same,circulating (serum) level of Rantes,[9]; 100 mg/kg,not significantly affected
same,circulating adiponectin levels,[9]; 100 mg/kg,increase
same,reduction in fasting glucose levels,[9]; 100 mg/kg,25%
same,serum level of IL-1α,[9]; 100 mg/kg,markedly reduced
same,serum level of MIP1α,[9]; 100 mg/kg,markedly reduced
same,serum level of TNFα,[9]; 100 mg/kg,markedly reduced
same,serum level of IL-10,[9]; compared to controls,elevated
